Data taken from patent publication US7579374B2, “Agent for improving bone metabolism” (The Nisshin OilliO Group, Ltd., priority 2001, dated 2009).

Legend:
[1] = tested on: MC3T3-E1 cells; experiment: Alkaline phosphatase (ALP) activity of osteoblasts in cell culture system; format: cell-based, mice; settings: 2.5 μM
Description: (§1) In such a system, the osteoblasts are proliferated and the activity of osteoblasts is increased. Therefore, any influence of a substance on the osteoblast-formation can be evaluated by determining, for instance, the rate of cell proliferation and the alkaline phosphatase (ALP) activity as an activity parameter.
(§2) In this Example, there were examined the effects of the chain isoprenoid fatty acid esters on the differentiation and calcium-accumulation of MC3T3-E1 cells or the osteoblasts derived from the skull-caps of mice. A culture medium was added to a 6-well plate in an amount of 2 mL/well, a desired number of MC3T3-E1 cells was inoculated on the medium and the cells were cultivated in a 10% fatal bovine serum-containing base culture liquid (α-MEM, available from Gibco Company) at 37° C. in an atmosphere of 5% CO2. On the day subsequent to the initiation of the cultivation, the culture medium was replaced with the fresh one and simultaneously a solution containing each test sample (the chain isoprenoid fatty acid esters obtained in Preparation Examples 1 to 9) was admixed with and added to the culture medium in an amount of 10 μM for the determination of the cell growth rate and 2.5 μM for the determination of the alkali phosphatase (ALP) activity and the cultivation was continued. The cells for the cell growth rate determination were recovered after 3 days from the initiation of the cultivation and the number of viable cells was counted to determine the cell growth rate. Regarding the other cells, the medium was replaced with fresh one on 5th day of cultivation, the test sample-containing solution was again added and the alkali phosphatase (ALP) activity was determined after the cultivation over one week.
In these experiments, there was used a kit for Alkaline Phospha K-Test WAKO (available from WAKO Pure Chemical Co., Ltd.). A sample used was a suspension of cells obtained by cultivating the same in the presence of each test substance added. A substrate (150 μL) was added to 10 μL of each sample followed by heating at 37° C. for 15 minutes, the addition of 150 μL of a color-developing liquid and determination of the absorbance at 570 nm. The ALP activity corresponding to each absorbance thus measured was determined using a calibration curve prepared in advance.

[2] = tested on: MC3T3-E1 cells; experiment: Cell growth rate of osteoblasts in cell culture system; format: cell-based, mice; settings: 10 μM; viable cells after 3 days; relative to control defined as 100
Description: as §1, §2
The cell growth rate was calculated as a value relative to the cell growth rate observed for the control (free of any added test sample), which was defined to be 100.

[3] = Test for acute toxicity; format: in vivo, rats; settings: oral
Protocol: The acute toxicity test was carried out according to the following method. Whister female rats (6-week-old, average body weight: 160 g) were previously kept for one week using a powdery blend feed having an AIN-93 composition, divided into three groups (each group containing 10 animals) in such a manner that the average body weight was uniform and the groups were specified as the orally administered group, the subcutaneously administered group and the intraperitoneally administered group, in the following tests. Geranyl-geranyl eicosapentaenoate prepared according to the procedures used in Example 5 was dissolved in cotton seed oil and administered to the foregoing animals through the corresponding administration routes in an amount of 2000 mg/kg (body weight). Subsequently, these animals were kept using a powdery blend feed having an AIN-93 composition to thus observe the prognostic conditions of the animals over 2 weeks after the administration and after 2 weeks, these animals were anatomized to thus inspect the animals for conditions of internal organs thereof.

[4] = tested on: osteoclasts; experiment: Bone absorption-inhibitory action in cell co-cultivation system (TRACP activity); format: cell-based, mice; settings: 10 μM test substance
Description: The cell co-culture system used herein means a system in which osteoblasts and hematopoietic cells are subjected to co-culture in the presence of a factor for promoting the formation of osteoclasts and which thus easily permits the analysis of the differentiation process of the osteoclasts (Endocrinology, 1988, 123: 2600-2602). In such a system, osteoclasts are formed and therefore, the degree of osteoclast-formation can be evaluated by the determination of a tartaric acid-resistant acid phosphatase (TRACP) activity in the cell layer as the parameter indicative of the osteoclast.
The test for the confirmation of the bone absorption-inhibitory action of the isoprenoid ester was carried out according to the method disclosed in the literature (Endocrinology, 1988, 123: 2600). The method will be outlined below:
Stroma cells collected from the skull-caps of two-week-old mice according to the method disclosed in the literature (Endocrinology, 1988, 123: 2600) were dispersed in a 10% fetal bovine serum-containing culture base liquid (α-MEM; available from Gibco Company) to a cell density of 5×10^4 cells/mL.
Spleen cells collected from the spleen of 6-week-old ddy male mice according to the method disclosed in the literature (Proc. Natl. Acad. Sci. USA, 1983, 80: 5583) were dispersed in a 10% fetal bovine serum-containing culture base liquid (α-MEM; available from Gibco Company) to a cell density of 5×10^5 cells/mL.
The co-cultivation was carried out in a 5% CO2-containing atmosphere at a temperature of 37° C. using a 10% FBS (fetal bovine serum)-containing culture base liquid (α-MEM; available from Gibco Company). Osteoblast cells were inoculated on a 24-well petri dish at a cell density of 5×10^4 cells/mL/well, spleen cells were then inoculated thereon at a cell density of 5×10^5 cells/mL/well after one day and a solution of a test substance, which had been dissolved in DMSO in a concentration of 10^-2M, was then added to each well in such a manner that the concentration of the test substance was equal to 10 μM. These cells were cultivated in the presence of 10 nM Calcitriol and 100 nM Dexamethasone over 2 weeks while defining the day on which the spleen cells were inoculated as 0th day. In this respect, the culture medium was replaced with fresh one twice a week. After two weeks, the activity of the tartrate-resistant acid phosphatase (hereunder referred to as “TRACP”) in the cell layer was determined, which served as a parameter indicating the number of osteoclasts in the layer.
In the determination of the TRACP activity, there was used a kit of acid phosphatase KII-WAKO (available from WAKO Pure Chemical Co., Ltd.). The culture medium was removed from the Petri dish, 500 μL each of a substrate was added to each well, the resulting cell suspension was heated at 37° C. for 15 minutes, followed by the addition of 500 μL each of a color developing liquid and the determination of the absorbance at a wavelength of 570 nm. The TRACP activity corresponding to each absorbance thus measured was determined using a calibration curve prepared in advance.

Geranyl-Geranyl Eicosapentaenoate
ALP Act. ([1]; cultivation over one week, control 71.6 ± 4.6): 123.5 ± 7.3 KA-U/well
Judged Efficacy (ALP, t-test relative to the control) ([1]; one week): ⊚ (The test substance shows a considerable inhibitory effect (p < 0.01))
Cell Growth Rate [2]: 107.8%
Anatomical findings of the internal organs ([3]; 2000 mg/kg, subcutaneous, intraperitoneal, after 2 weeks): normal
Mortality ([3]; 2000 mg/kg, subcutaneous, intraperitoneal, after 2 weeks from the administration): any animal was not killed
LD50 value ([3]; female rats, subcutaneous and intraperitoneal groups, single 2000 mg/kg in cotton seed oil, 2 weeks observation): higher than 2000 mg/kg (body weight)
Judged Efficacy (TRACP, t-test relative to the control) ([4]; 2 weeks): ⊚ (The test substance shows a considerable inhibitory effect (p < 0.01))
TRACP Act. ([4]; co-culture 2 weeks with 10 nM Calcitriol and 100 nM Dexamethasone, control 102.8 ± 12.6): 9.7 ± 1.4 KA-U/well
